Earlier results, collected in article PMC5989765, “The safety, tolerability, and pharmacokinetic profile of GSK2838232, a novel 2nd generation HIV maturation inhibitor, as assessed in healthy subjects” (Pharmacology Research & Perspectives, 2018).

Tests used:
HIV [1] = tested on: HIV; set-up: method as in PMID 20154583; settings: cited from earlier work
HIV [2] = settings: cited from earlier work

SMILES	potency in the presence of human serum (HIV [1])	efficacy against naturally occurring polymorphisms in the HIV gag region (CA & Sp1) (HIV [2])	anti‐HIV potency compared to BVM (HIV [2]; Phase IIa clinical studies)	safety (HIV [2]; Phase IIa clinical studies)
C=C(C)[C@@H]1CC[C@]2(C(=O)O)CC[C@]3(C)[C@H](CC[C@@H]4[C@@]5(C)CC[C@H](OC(=O)CC(C)(C)C(=O)O)C(C)(C)[C@@H]5CC[C@]43C)[C@@H]12 [BVM, Bevirimat]	significant decrease in potency	lack of efficacy	–	–
C=C(C)[C@@H]1CC[C@]2(NCCN3CCS(=O)(=O)CC3)CC[C@]3(C)[C@H](CC[C@@H]4[C@@]5(C)CC=C(c6ccc(C(=O)O)cc6)C(C)(C)[C@@H]5CC[C@]43C)[C@@H]12 [BMS‐955176]	–	–	greater and dose‐related anti‐HIV potency	no obvious safety concerns
